Assay results from patent US12466820B2, “Amino quinazoline derivatives as P2X3 inhibitors” (CHIESI FARMACEUTICI S.p.A., priority 2019, dated 2025).
Counter-ions that a name gives are not always drawn.

Molecular target: T1, h P2X3 (Homo sapiens, UniProt P56373)
T1 sequence (P56373 1-397): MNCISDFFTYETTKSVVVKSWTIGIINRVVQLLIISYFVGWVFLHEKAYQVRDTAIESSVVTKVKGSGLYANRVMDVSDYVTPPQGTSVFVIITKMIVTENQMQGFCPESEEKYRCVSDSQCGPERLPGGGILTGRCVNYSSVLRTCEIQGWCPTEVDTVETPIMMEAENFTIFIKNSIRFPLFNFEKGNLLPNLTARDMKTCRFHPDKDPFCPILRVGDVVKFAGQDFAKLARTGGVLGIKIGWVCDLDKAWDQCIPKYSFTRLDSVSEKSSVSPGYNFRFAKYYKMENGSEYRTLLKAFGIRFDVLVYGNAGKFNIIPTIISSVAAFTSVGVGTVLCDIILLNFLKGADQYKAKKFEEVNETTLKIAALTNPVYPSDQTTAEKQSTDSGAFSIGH
Assay: In vitro electrophysiology assay for P2X3 (automated whole-cell patch clamp, Sophion Qube)
Format: cell-based
Conditions: Table 6; range of activity; inhibition of P2X3 current, agonist α,β-MeATP (800 nM)
Method: Pharmacological Activity of the Compounds of the Invention In Vitro Electrophysiology Assay for P2X3
Cells expressing P2X3 receptors were grown according to standard practice and maintained at 37° C. in a 5% humidified CO2 atmosphere. The cells were seeded into T175 flask 2 days prior to the day of the assay and dissociated from the flasks using TrypLE when grown to confluence of 80-90%. The dissociated cells were resuspended in serum free media at a cell density of 3×10^6 cells/ml and loaded onto the Sophion Qube automated patch-clamp system. The extracellular assay buffer contained 145 mM NaCl, 4 mM KCl, 2 mM CaCl2), 1 mM MgCl2, 10 mM HEPES, and 10 mM glucose at pH 7.4. The intracellular assay solution contained 140 mM CsF, 10 mM NaCl, 10 mM EGTA, 10 mM HEPES at pH 7.2. Agonist stock solutions were prepared in H2O and diluted in bath solution prior to use. All antagonists were prepared as 10 mM stock solutions in DMSO and diluted in bath solution prior to use. All experiments were performed under the whole-cell patch clamp configuration at room temperature with 384 individual cells being voltage clamped at −60 mV simultaneously on the Sophion Qube instrument. Two baseline responses were established with the application of α,β-MeATP (800 nM), with the subsequent agonist applications being washed out using extracellular assay buffer containing 0.5 U/ml apyrase. Following the second agonist application, antagonist was incubated in the absence of α,β-MeATP for 10 minutes. After antagonist preincubation, 800 nM α,β-MeATP and antagonist were co-administered to determine the inhibitory effect of the antagonist. One concentration of an antagonist was assessed against a single cell, with different concentrations of the antagonist applied to other cells on the 384 recording substrate. The control P2X3 current amplitude was taken from the peak current amplitude from the second agonist response prior to preincubation with antagonist. The peak P2X3 current amplitude in the presence of antagonist was used to calculate the inhibitory effect at each concentration of the antagonist according to the following equation: […]
Concentration-response curves were constructed from ten different concentrations with each concentration of antagonist tested on at least two individual cells. The concentration of the antagonist to inhibit P2X3 current by 50% (IC50) was determined by fitting the data with the following equation: […]
Where ‘a’ is minimum response, ‘b’ is maximum response, ‘c’ is IC50 and ‘d’ is Hill slope.
The results for individual compounds are provided below in Table 6 and are expressed as range of activity.
The activity of the comparative examples A and B have been tested in the in vitro Electrophysiology Assay for P2X3 as described above.

IC50	Compound
316 to 3160 nM	CNS(=O)(=O)c1cc(-c2ccc(F)cc2)cc2c(N[C@H](C)c3nnc(C)s3)ncnc12 [Example 21]
316 to 3160 nM	Cc1cnc(-c2cc(OC3CCOCC3)c3ncnc(NCc4ccc(C)nn4)c3c2)nc1 [Example 31, N-[(6-methylpyridazin-3-yl)methyl]-6-(5-methylpyrimidin-2-yl)-8-tetrahydropyran-4-yloxy-quinazolin-4-amine]
316 to 3160 nM	Cc1ccc([C@@H](C)Nc2ncnc3c(OC4CCOCC4)cc(-c4ccn(C)n4)cc23)nn1 [Example 32, (R)-6-(1-methyl-1H-pyrazol-3-yl)-N-(1-(6-methylpyridazin-3-yl)ethyl)-8-((tetrahydro-2H-pyran-4-yl)oxy)quinazolin-4-amine]
< 316 nM	Cc1ccc(CNc2ncnc3c(OCCO)cc(-c4ncc(C)s4)cc23)nn1 [Example 36, 2-((4-(((6-methylpyridazin-3-yl)methyl)amino)-6-(5-methylthiazol-2-yl)quinazolin-8-yl)oxy)ethan-1-ol]
< 316 nM	Cc1ccc(CNc2ncnc3c(OCC4COC4)cc(-c4ncc(C)s4)cc23)nn1 [Example 37, N-((6-methylpyridazin-3-yl)methyl)-6-(5-methylthiazol-2-yl)-8-(oxetan-3-ylmethoxy)quinazolin-4-amine]
< 316 nM	C[C@@H](Nc1ncnc2c(OC3CCNC4(CCC4)C3)cc(-c3ccc(F)cc3)cc12)c1cnc(C(F)(F)F)nc1 (stereo partly drawn) [Example 39, 8-(5-azaspiro[3.5]nonan-8-yloxy)-6-(4-fluorophenyl)-N-[(1R)-1-[2-(trifluoromethyl)pyrimidin-5-yl]ethyl]quinazolin-4-amine]
3160 to 31600 nM	Cc1ccc(CNc2ncnc3c(OC4COC4)cc(-c4ccc(F)cc4)cc23)nn1 [Example 74, 6-(4-fluorophenyl)-N-((6-methylpyridazin-3-yl)methyl)-8-(oxetan-3-yloxy)quinazolin-4-amine]
316 to 3160 nM	Cc1cnc(-c2cc(OC3CCOCC3)c3ncnc(NC(C)c4nnc(C)s4)c3c2)s1 (centres unmarked) [Example 81, N-[1-(5-methyl-1,3,4-thiadiazol-2-yl)ethyl]-6-(5-methylthiazol-2-yl)-8-tetrahydropyran-4-yloxy-quinazolin-4-amine]
< 316 nM	Cc1nc([C@@H](C)Nc2ncnc3c(OC4CCOCC4)cc(-c4ccc(F)cn4)cc23)no1 [Example 82, 6-(5-fluoro-2-pyridyl)-N-[(1R)-1-(5-methyl-1,2,4-oxadiazol-3-yl)ethyl]-8-tetrahydropyran-4-yloxy-quinazolin-4-amine]
< 316 nM	COc1cc(-n2ccc(Cl)n2)cc2c(NC(C)c3cnc(C(F)(F)F)nc3)ncnc12 (centres unmarked) [Example 95, 6-(3-Chloro-1H-pyrazol-1-yl)-8-methoxy-N-(1-(2-(trifluoromethyl)pyrimidin-5-yl)ethyl)quinazolin-4-amine]
< 316 nM	COc1cc(-n2cc(Cl)cn2)cc2c(N[C@H](C)c3ccc(C)nn3)ncnc12 [Example 100, (R)-6-(4-chloro-1H-pyrazol-1-yl)-8-methoxy-N-(1-(6-methylpyridazin-3-yl)ethyl)quinazolin-4-amine]

Continued, molecule first:

Compound	IC50
C[C@@H](Nc1ncnc2c(-c3cncnc3)cc(-c3ccc(F)cc3)cc12)c1cnc(C(F)(F)F)nc1 [Example 25, (R)-6-(4-fluorophenyl)-8-(pyrimidin-5-yl)-N-(1-(2-(trifluoromethyl)pyrimidin-5-yl)ethyl)quinazolin-4-amine]	< 316 nM
C[C@@H](Nc1ncnc2c(C3CCOCC3)cc(-c3ccc(F)cc3)cc12)c1cnc(C(F)(F)F)nc1 [Example 26, (R)-6-(4-fluorophenyl)-8-(tetrahydro-2H-pyran-4-yl)-N-(1-(2-(trifluoromethyl)pyrimidin-5-yl)ethyl)quinazolin-4-amine]	316 to 3160 nM
C[C@@H](Nc1ncnc2c(C3=CCNCC3)cc(-c3ccc(F)cc3)cc12)c1cnc(C(F)(F)F)nc1 [Example 27, (R)-6-(4-fluorophenyl)-8-(1,2,3,6-tetrahydropyridin-4-yl)-N-(1-(2-(trifluoro-methyl)pyrimidin-5-yl)ethyl)quinazolin-4-amine]	< 316 nM
Cc1ccc([C@@H](C)Nc2ncnc3c(OC4CCOCC4)cc(-c4ncc(C)s4)cc23)nn1 [Example 33]	< 316 nM
Cc1cnc(-c2cc(OCC3(O)CCOCC3)c3ncnc(NC(C)c4ccc(C)nn4)c3c2)nc1 (centres unmarked) [Example 34, 4-[[4-[1-(6-methylpyridazin-3-yl)ethylamino]-6-(5-methylpyrimidin-2-yl)quinazolin-8-yl]oxymethyl]tetrahydropyran-4-ol]	316 to 3160 nM
COCCOc1cc(-c2ncc(C)s2)cc2c(NCc3ccc(C)nn3)ncnc12 [Example 35, 8-(2-methoxyethoxy)-N-((6-methylpyridazin-3-yl)methyl)-6-(5-methylthiazol-2-yl)quinazolin-4-amine]	< 316 nM
Cc1ccc(CNc2ncnc3c(OC4CCOCC4)cc(-c4ncc(C)s4)cc23)nn1 [Example 38, N-[(6-methylpyridazin-3-yl)methyl]-6-(5-methylthiazol-2-yl)-8-tetrahydropyran-4-yloxy-quinazolin-4-amine]	316 to 3160 nM
C[C@@H](Nc1ncnc2c(OC3CC4CC3CN4)cc(-c3ccc(F)cc3)cc12)c1cnc(C(F)(F)F)nc1 (stereo partly drawn) [Example 41, 8-((2-azabicyclo[2.2.1]heptan-5-yl)oxy)-6-(4-fluorophenyl)-N-((R)-1-(2-(trifluoromethyl)pyrimidin-5-yl)ethyl)quinazolin-4-amine]	< 316 nM
Cc1cnc(-c2cc(OCC(=O)O)c3ncnc(NCc4ccc(C)nn4)c3c2)nc1 [Example 55, 2-((4-(((6-methylpyridazin-3-yl)methyl)amino)-6-(5-methylpyrimidin-2-yl)quinazolin-8-yl)oxy)acetic acid dihydrochloride]	< 316 nM
CN1CCC(CNc2ncnc3c(OCC(=O)O)cc(-c4ccc(F)cc4)cc23)CC1 [Example 57, 2-((6-(4-fluorophenyl)-4-(((1-methylpiperidin-4-yl)methyl)amino)quinazolin-8-yl)oxy)acetic Acid Hydrochloride]	316 to 3160 nM
Cc1ccc(CNc2ncnc3c(-c4ccnn4C)cc(-c4ccc(F)cc4)cc23)nn1 [Example 94, 6-(4-fluorophenyl)-8-(2-methylpyrazol-3-yl)-N-[(6-methylpyridazin-3-yl)methyl]quinazolin-4-amine]	316 to 3160 nM
COc1cc(-n2ccc(Cl)n2)cc2c(NC(C)c3ccc(C)nn3)ncnc12 (centres unmarked) [Example 96, 6-(3-chloro-1H-pyrazol-1-yl)-8-methoxy-N-(1-(6-methylpyridazin-3-yl)ethyl)quinazolin-4-amine]	316 to 3160 nM
COc1cc(-n2cc(F)cn2)cc2c(N[C@H](C)c3cnc(C(F)(F)F)nc3)ncnc12 [Example 97, (R)-6-(4-fluoro-1H-pyrazol-1-yl)-8-methoxy-N-(1-(2-(trifluoromethyl)pyrimidin-5-yl)ethyl)quinazolin-4-amine]	316 to 3160 nM
COc1cc(-n2cc(F)cn2)cc2c(N[C@H](C)c3ccc(C)nn3)ncnc12 [Example 98, (R)-6-(4-fluoro-1H-pyrazol-1-yl)-8-methoxy-N-(1-(6-methylpyridazin-3-yl)ethyl)quinazolin-4-amine]	316 to 3160 nM
COc1cc(-n2ccc(F)n2)cc2c(N[C@H](C)c3ccc(C)nn3)ncnc12 [Example 101, (R)-6-(3-fluoro-1H-pyrazol-1-yl)-8-methoxy-N-(1-(6-methylpyridazin-3-yl)ethyl)quinazolin-4-amine]	316 to 3160 nM
